Test results reported in PMC6934184, “Selective DNA-PKcs inhibition extends the therapeutic index of localized radiotherapy and chemotherapy” (The Journal of Clinical Investigation, 2019).

Target: T1, IRAK4 (Homo sapiens, UniProt Q9NWZ3)
T1 construct: purchased Thermo Fisher Scientific (Life Technologies) SelectScreen
Test: SelectScreen Z'LYTE
Assay type: biochemical
How it was run: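 NU5455 was profiled across the SelectScreen Broad panel of kinase activity and binding assays. Z'LYTE reactions such as CSF1R ran at apparent Km ATP, while the Adapta CAMK1 assay used ATP listed as 10. Values are given as percent.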

T1 sequence (Q9NWZ3 whole entry): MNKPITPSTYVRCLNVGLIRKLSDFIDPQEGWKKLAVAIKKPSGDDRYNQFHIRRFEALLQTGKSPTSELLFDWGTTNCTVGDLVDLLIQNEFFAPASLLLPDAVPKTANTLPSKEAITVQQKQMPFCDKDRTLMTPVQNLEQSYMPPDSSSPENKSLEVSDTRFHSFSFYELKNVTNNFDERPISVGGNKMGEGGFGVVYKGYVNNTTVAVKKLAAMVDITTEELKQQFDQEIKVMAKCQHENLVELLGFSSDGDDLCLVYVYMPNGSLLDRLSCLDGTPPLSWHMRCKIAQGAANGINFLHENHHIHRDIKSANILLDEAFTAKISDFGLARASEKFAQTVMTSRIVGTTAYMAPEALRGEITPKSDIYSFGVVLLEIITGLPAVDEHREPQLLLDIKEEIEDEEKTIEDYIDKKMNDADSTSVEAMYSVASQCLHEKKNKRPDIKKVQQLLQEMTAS

CN(C(=O)CN1CCOCC1)c1ccc2sc3c(-c4cccc5c(=O)cc(N6CC7CCC(C6)O7)oc45)cccc3c2c1 [NU5455]
inhibition at 1 µM: -20.5%
